From US20150141473A1, “PHARMACEUTICAL DOSAGE FORMS OF TIZANIDINE AND ADMINISTRATION ROUTES THEREOF” (priority 2012, published 2015)
Structures can show the parent of a compound that is named as a salt.

Legend:
[1] = aqueous solution 45.00 mg/mL, pH 4.8
Experimental: The proposed formulations are calculated for a single puff of 50 μL/nostril.

[2] = pH of the formulations / aqueous solutions; format: physicochemical; settings: aqueous solutions without buffer
[3] = highest concentration, 14 days of treatment tid in rabbits
[4] = Human absorption: Tizaspray intranasally vs Sirdalud tablets, randomised cross-over, plasma levels of tizanidine by LC/MS/MS over 12 hours; settings: highest concentration, single administration in humans
Experimental: The plasma levels of tizanidine were determined by LC/MS/MS over 12 hours from the administration.
R=Sirdalud tablet; T1=1*70 μL/puff by intranasal route; T2=2*70 μL/puff by intranasal route.

[5] = rabbits, 3.00 mg/kg of tizanidine hydrochloride, preliminary
[6] = background, cited from earlier work
[7] = animal data, local administration; cited from earlier work

| Compound | tolerability on the nasal mucosa (redness or pain) [1] | pH of aqueous solutions [2] | tolerability on the nasal mucosa [3] | absorption by intranasal route [4] | bioavailability by intranasal route ([5]; IN vs IM) | intranasal absorption ([5]; IN, without any enhancer) | absorption by oral route ([6]; 2 or 4 mg tablets) | T1/2z ([6]; known pharmacokinetic profile) [h] | Tmax ([6]; known pharmacokinetic profile) [h] | first-pass effect ([6]; oral route) | activity compared with clonidine [7] |
| --- | --- | --- | --- | --- | --- | --- | --- | --- | --- | --- | --- |
| Clc1ccc2nsnc2c1NC1=NCCN1 [tizanidine hydrochloride] | tolerated by the nasal mucosa without any local side effect | 4.8 | well tolerated on the nasal mucosa | rapidly and completely absorbed |  |  |  |  |  |  |  |
| Clc1ccc2nsnc2c1NC1=NCCN1 [Tizanidine, 5-chloro-N-(4,5-dihydro-1H-imidazol-2-yl)-2,1,3-benzothia-diazol-4-amine] |  |  |  |  | close to that of intramuscular route (IM) | rapidly absorbed | well and rapidly absorbed by oral route | 1 to 2 | 1 to 2 | extensive first-pass effect | equivalent activity of tizanidine and clonidine |
